FC(F)(F)c1cccnc1Cl
solubility (mole fraction)
Conditions	263.15 K	268.15 K	273.15 K	278.15 K	283.15 K	288.15 K	293.15 K	298.15 K	303.15 K
in ethanol	0.0807	0.112	0.141	0.186	0.262	0.363	0.476	0.621	0.831
in ethyl acetate	0.306	0.35	0.399	0.455	0.508	0.583	0.652	0.739	0.824
in n-butanol	0.0947	0.118	0.14	0.183	0.229	0.284	0.345	0.421	0.51

Source: BigSolDB 2.1
